# Experimental data: patent US6730790B2, “Chlorinated heterocyclic compounds and methods of synthesis” (R.T. Alamo Ventures I. LLC, priority 2002, dated 2004)
# Assays:
# Type in all cases: biochemical
# [1] = biological target: T1, PDE1 partially purified from bovine heart (Bos taurus, UniProt P14100); assay: PDE1 enzyme inhibition assay ([3H]cAMP hydrolysis, scintillation counting)
# T1 construct: PDE1 partially purified from bovine heart was used; from tissue; host or cells: bovine heart
# Source text: (§1) In this example, a racemic mixture of monochloroflosequinan and the sulfone derivative of monochloroflosequinan were independently subjected to biochemical enzyme assays to determine their respective percent inhibition of a variety of phosphodiesterases (PDE1-PDE6). The methods used have been adapted from those described in the scientific literature, see Hidaka and Asano “Human blood platelet 3′:5′ cyclic nucleotide phosphodiesterase. Isolation of low-Km and high Km phosphodiesterase.” Biochem. Biophys. Acta 429:485 (1976); Nicholoson et at. “Differential modulation of tissue function and therapeutic potential of selective inhibitors of cyclic nucleotide phosphodiesterase isoenzymes” Trends Pharmacol. Sci. 12:19 (1991); Cortijo et al. “Investigation into the role of phosphodiesterase IV in bronchorelaxation, including studies with hyman bronchus.” Br. J. Pharmacol. 108:562 (1993); Baehr et al. “Isolation and characterization of cGMP phosphodiesterase from bovine rod outer segments.” J. Biol. Chem. 254:11669 (1979) and Gillespie and Beavo “Inhibition and stimulation of photoreceptor phosphodiesterase by dipyridamole and M&B 22,948” Molecular Pharm. 36:773 (1989). […]
# PDE1: PDE1 partially purified from bovine heart was used. […] Unhydrolyzed cAMP was bound to AGI-X2 resin, and the remaining [^3H]adenosine in the aqueous phase was quantitated by scintillation counting.
# [2] = biological target: T2, PDE3 partially purified from human platelets (Homo sapiens, UniProt Q14432); assay: PDE3 enzyme inhibition assay ([3H]cAMP hydrolysis, scintillation counting); details: for IC50: varying concentrations 300-1 μM
# T2 construct: PDE3 partially purified from human platelets was used; from tissue; host or cells: human platelets
# Source text: In this example, a racemic mixture of monochloroflosequinan and the sulfone derivative of monochloroflosequinan were independently subjected to biochemical enzyme assays to determine their respective percent inhibition of a variety of phosphodiesterases (PDE1-PDE6). The methods used have been adapted from those described in the scientific literature, see Hidaka and Asano “Human blood platelet 3′:5′ cyclic nucleotide phosphodiesterase. Isolation of low-Km and high Km phosphodiesterase.” Biochem. Biophys. Acta 429:485 (1976); Nicholoson et at. “Differential modulation of tissue function and therapeutic potential of selective inhibitors of cyclic nucleotide phosphodiesterase isoenzymes” Trends Pharmacol. Sci. 12:19 (1991); Cortijo et al. “Investigation into the role of phosphodiesterase IV in bronchorelaxation, including studies with hyman bronchus.” Br. J. Pharmacol. 108:562 (1993); Baehr et al. “Isolation and characterization of cGMP phosphodiesterase from bovine rod outer segments.” J. Biol. Chem. 254:11669 (1979) and Gillespie and Beavo “Inhibition and stimulation of photoreceptor phosphodiesterase by dipyridamole and M&B 22,948” Molecular Pharm. 36:773 (1989). A brief summary of the conditions for each enzyme assay is provided below:
# PDE3: PDE3 partially purified from human platelets was used. The compounds were independently incubated with 13 μg PDE3 enzyme and 1.01 μM [^3H]cAMP+cAMP in Tris buffer pH 7.5 for 20 minutes at either 25° C. or 30° C. The reaction was terminated by boiling for 2 minutes, and the resulting AMP was converted to adenosine by addition of 10 mg/ml snake venom nucleotidase and further incubation at 30° C. for 10 minutes. Unhydrolyzed cAMP was bound to AGI-X2 resin, and the remaining [^3H]adenosine in the aqueous phase was quantitated by scintillation counting.
# [3] = biological target: T3, PDE2 partially purified from human platelets (Homo sapiens, UniProt O00408); assay: PDE2 enzyme inhibition assay ([3H]cAMP hydrolysis, scintillation counting)
# T3 construct: PDE2 partially purified from human platelets was used; from tissue; host or cells: human platelets
# Source text: as §1
# PDE2: PDE2 partially purified from human platelets was used. […] Unhydrolyzed cAMP was bound to AGI-X2 resin, and the remaining [^3H]adenosine in the aqueous phase was quantitated by scintillation counting.
# [4] = 100 μM compound, 30° C., 1% DMSO vehicle
# [5] = varying concentrations 300-1 μM
# T2 sequence (Q14432 whole entry): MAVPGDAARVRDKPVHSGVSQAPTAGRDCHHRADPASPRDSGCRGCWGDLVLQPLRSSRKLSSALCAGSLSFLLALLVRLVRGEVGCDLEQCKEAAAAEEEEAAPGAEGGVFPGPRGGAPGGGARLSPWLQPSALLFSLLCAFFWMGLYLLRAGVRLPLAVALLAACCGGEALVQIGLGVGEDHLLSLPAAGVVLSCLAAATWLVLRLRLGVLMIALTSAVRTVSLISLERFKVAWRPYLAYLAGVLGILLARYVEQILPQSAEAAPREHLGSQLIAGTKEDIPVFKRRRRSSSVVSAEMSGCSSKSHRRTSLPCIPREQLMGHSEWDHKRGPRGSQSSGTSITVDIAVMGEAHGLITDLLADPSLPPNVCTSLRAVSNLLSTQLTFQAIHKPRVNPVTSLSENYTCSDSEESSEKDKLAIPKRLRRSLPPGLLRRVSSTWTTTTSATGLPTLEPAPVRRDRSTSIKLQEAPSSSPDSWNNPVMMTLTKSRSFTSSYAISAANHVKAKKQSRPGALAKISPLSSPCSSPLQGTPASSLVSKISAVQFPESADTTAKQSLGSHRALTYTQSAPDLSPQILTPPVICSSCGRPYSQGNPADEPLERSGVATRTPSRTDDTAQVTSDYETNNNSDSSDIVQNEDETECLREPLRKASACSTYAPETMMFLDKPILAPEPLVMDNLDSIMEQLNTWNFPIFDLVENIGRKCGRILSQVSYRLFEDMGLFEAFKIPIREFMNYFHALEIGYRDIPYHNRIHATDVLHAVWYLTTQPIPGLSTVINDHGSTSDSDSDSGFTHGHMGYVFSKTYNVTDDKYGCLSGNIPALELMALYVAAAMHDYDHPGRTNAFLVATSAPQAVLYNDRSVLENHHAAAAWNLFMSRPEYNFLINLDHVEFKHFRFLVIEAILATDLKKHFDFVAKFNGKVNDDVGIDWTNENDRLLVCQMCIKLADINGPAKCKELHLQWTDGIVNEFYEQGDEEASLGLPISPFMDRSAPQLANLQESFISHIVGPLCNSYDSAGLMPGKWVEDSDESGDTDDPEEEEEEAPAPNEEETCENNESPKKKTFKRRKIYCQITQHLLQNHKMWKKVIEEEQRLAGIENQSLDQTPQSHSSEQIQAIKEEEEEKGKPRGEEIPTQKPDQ
# T1 sequence (P14100 1-514 isoform P14100-2): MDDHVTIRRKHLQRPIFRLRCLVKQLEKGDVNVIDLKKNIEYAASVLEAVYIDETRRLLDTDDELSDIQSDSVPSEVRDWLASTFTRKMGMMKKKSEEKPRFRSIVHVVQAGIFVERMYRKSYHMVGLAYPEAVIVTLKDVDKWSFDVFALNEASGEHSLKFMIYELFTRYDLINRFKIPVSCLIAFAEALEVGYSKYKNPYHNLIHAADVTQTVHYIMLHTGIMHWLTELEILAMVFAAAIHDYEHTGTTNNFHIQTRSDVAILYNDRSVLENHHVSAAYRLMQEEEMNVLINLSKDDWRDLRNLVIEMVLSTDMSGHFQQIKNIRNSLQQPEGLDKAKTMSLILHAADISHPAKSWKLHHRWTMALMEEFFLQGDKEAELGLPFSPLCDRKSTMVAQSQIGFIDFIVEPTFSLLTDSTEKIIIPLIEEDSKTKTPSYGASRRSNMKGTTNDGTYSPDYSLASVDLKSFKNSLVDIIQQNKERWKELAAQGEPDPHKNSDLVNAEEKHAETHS
# T3 sequence (O00408 whole entry): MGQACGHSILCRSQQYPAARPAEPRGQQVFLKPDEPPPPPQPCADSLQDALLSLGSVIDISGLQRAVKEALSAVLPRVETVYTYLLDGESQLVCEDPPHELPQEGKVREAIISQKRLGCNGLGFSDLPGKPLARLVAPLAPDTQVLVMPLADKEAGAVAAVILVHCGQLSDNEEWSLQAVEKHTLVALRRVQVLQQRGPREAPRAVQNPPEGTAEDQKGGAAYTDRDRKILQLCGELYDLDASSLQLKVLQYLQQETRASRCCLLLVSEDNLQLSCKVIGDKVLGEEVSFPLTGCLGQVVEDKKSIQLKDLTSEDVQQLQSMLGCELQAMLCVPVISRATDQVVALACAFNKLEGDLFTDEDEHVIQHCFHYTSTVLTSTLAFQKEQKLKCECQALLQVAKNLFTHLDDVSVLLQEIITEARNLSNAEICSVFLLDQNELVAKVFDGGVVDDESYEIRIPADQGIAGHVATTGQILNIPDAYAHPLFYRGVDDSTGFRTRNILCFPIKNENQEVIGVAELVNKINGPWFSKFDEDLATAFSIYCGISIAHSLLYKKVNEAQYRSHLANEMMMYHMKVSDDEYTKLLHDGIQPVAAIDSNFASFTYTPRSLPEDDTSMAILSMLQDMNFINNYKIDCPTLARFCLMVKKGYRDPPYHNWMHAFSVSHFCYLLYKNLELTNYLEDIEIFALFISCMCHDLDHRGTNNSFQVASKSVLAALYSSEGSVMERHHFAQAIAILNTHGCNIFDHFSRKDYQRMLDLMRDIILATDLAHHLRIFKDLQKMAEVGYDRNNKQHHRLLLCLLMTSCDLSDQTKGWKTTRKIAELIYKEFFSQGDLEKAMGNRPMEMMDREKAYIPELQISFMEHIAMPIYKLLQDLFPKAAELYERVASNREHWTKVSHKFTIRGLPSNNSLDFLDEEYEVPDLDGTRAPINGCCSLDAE
"inhibition of PDE1 [1, 4]","IC50 [1, 5] [µM]","inhibition of PDE3 [2, 4]",IC50 [2] [µM],"inhibition of PDE2 [3, 4]","IC50 [3, 5] [µM]","inhibition at 100 µM ([2]; 100 μM compound, 25° C., 1% DMSO vehicle) [%]",SMILES
Significant inhibition,65.6,Significant inhibition,28.2,Significant inhibition,> 300,–,"Cn1cc([S+]([O-])CCl)c(=O)c2ccc(F)cc21 (racemic) [monochloroflosequinan, 3-chloromethylsulfinyl-7-fluoro-1-methyl-4-quinolone]"
–,–,–,95.9,–,–,> 50,"Cn1cc(S(=O)(=O)CCl)c(=O)c2ccc(F)cc21 [monochloroflosequinan sulfone, 3-chloromethylsulfonyl-7-fluoro-1-methyl-4-quinolone]"
